Test results as given in publication PMC10380810, “Nitazoxanide Inhibits the Bifunctional Enzyme GlG6PD::6PGL of Giardia lamblia: Biochemical and In Silico Characterization of a New Druggable Target” (International Journal of Molecular Sciences, 2023).

Biological target: T1, GlG6PD::6PGL (fused bifunctional glucose-6-phosphate dehydrogenase::6-phosphogluconolactonase) (Giardia duodenalis, UniProt A8BWM5)
T1 construct: gene GL50803_008682; recombinant fused GlG6PD::6PGL; activity of the G6PD domain measured
T1 sequence (A8BWM5 entry or part of it): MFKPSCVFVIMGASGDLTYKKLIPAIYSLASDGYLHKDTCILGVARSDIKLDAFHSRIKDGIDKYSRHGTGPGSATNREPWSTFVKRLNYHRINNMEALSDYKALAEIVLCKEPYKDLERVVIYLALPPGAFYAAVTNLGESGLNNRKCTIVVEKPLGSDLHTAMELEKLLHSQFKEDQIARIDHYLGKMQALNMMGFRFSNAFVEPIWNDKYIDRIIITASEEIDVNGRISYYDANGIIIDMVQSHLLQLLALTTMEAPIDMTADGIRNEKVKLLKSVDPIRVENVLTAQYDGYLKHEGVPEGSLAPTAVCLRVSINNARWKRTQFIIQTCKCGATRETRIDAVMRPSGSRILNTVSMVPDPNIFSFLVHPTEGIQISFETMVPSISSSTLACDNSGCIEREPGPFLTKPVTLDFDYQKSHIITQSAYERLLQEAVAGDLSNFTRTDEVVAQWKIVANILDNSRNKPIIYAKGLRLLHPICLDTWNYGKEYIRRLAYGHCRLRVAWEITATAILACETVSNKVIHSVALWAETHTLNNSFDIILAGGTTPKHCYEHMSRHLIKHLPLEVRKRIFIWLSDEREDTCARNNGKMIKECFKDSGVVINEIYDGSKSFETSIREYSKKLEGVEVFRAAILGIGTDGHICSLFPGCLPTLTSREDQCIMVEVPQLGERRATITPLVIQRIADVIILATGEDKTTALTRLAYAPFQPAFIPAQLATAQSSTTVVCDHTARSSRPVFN
Experiment: residual G6PD activity at […] nm after […] h preincubation at […] °C with purified recombinant enzyme; k2 […] ^-1 s^-1; intrinsic and ANS fluorescence changes
Assay type: biochemical

Q: CC(=O)Oc1ccccc1C(=O)Nc1ncc([N+](=O)[O-])s1 [NTZ, 2-acetyloloxy-N-(5-nitro-2thiazolyl)benzamide] was tested. Which IC50 did it give?
A: 40 µM
